Where a SMILES comes first, the peptide text is derived from it. Where no end group is shown, it is not given here. [ ]: non-standard residue; d: D form. The star is where a group is joined. Hexanoyl = CCCCCC(=O)*; Aib = CC(C)(N)C(=O)O
How the values were obtained:
[1] = target: T1, human VPAC2 (Homo sapiens, UniProt P41587); experiment: Alpha screen cAMP in vitro potency, human VPAC2 receptor; assay type: cell-based; settings: cAMP generation; single result from two analyses performed in a single run; read-out: Human VPAC2 Receptor: Alpha Screen EC50
T1 construct: expressed in transfected cells
T1 sequence (P41587 24-438): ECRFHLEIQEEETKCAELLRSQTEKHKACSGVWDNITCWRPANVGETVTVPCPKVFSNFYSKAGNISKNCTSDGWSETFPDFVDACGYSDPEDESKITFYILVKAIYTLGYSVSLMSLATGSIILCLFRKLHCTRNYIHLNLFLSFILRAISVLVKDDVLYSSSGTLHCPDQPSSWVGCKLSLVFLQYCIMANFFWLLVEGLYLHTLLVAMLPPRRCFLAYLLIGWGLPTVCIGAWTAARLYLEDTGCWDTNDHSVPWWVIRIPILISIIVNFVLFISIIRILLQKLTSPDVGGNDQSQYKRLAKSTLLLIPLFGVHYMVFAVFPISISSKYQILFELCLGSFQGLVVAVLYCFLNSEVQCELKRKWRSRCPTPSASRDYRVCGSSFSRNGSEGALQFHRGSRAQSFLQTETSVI
Protocol: Alpha screen: Cells are washed in the culture flask once with PBS. Then, the cells are rinsed with enzyme free dissociation buffer. The dissociated cells are removed. The cells are then spun down and washed in stimulation buffer. For each data point, 50,000 cells suspended in stimulation buffer are used. To this buffer, Alpha screen acceptor beads are added along with the stimuli. This mixture is incubated for 60 minutes. Lysis buffer and Alpha screen donor beads are added and are incubated for 60 to 120 minutes. The Alpha screen signal (indicative of intracellular cAMP levels) is read in a suitable instrument (e.g. AlphaQuest from Perkin-Elmer). Steps including Alpha screen donor and acceptor beads are performed in reduced light.

[2] = target: T1, human VPAC2; experiment: Filter binding assay, membranes of stable VPAC2 cell line, 125I-labeled VIP tracer (Table 2); settings: read-out: Human VPAC2 Receptor Binding
Protocol: (§1) For this assay, the solutions and equipment include:
(§2) Presoak solution: 0.5% Polyethyleneamine in Aqua dest.
(§3) Buffer for flushing filter plates: 25 mM HEPES pH 7.4
(§4) Blocking buffer: 25 mM HEPES pH 7.4; 0.2% protease free BSA
(§5) Assay buffer: 25 mM HEPES pH 7.4; 0.5% protease free BSA
(§6) Dilution and assay plate: PS-Microplate, U form
(§7) Filtration Plate Multiscreen FB Opaque Plate; […] Type B Glasfiber filter
(§8) In order to prepare the filter plates, aspirate the presoak solution by vacuum filtration. Flush the plates twice with 200 μL flush buffer. Add 200 μL blocking buffer to the filter plate. The filter plate is then incubated […] for 1 hour at room temperature.
(§9) Fill the assay plate with 25 μL assay buffer, 25 μL membranes (2.5 μg) suspended in assay buffer, 25 μL compound (agonist) in assay buffer, and 25 μL tracer (about 40000 cpm) in assay buffer. Incubate the filled plate for 1 hour with shaking.
(§10) Conduct the transfer from assay plate to filter plate. Aspirate the blocking buffer by vacuum filtration and wash two times with flush buffer. Transfer 90 μL from the assay plate to the filter plate. Aspirate the 90 μL transferred from assay plate and wash three times with 200 μL flush buffer. Remove the plastic support. Dry for 1 hour at 60° C. Add 30 μL Microscint. Perform the count.

[3] = target: T2, human VPAC1 (Homo sapiens, UniProt P32241); experiment: Filter binding assay, membranes of cells transiently transfected with human VPAC1, 125I-labeled VIP tracer (Table 2); design: expressed in transfected cells; settings: read-out: Human VPAC1 Receptor Binding
T2 sequence (P32241 31-457): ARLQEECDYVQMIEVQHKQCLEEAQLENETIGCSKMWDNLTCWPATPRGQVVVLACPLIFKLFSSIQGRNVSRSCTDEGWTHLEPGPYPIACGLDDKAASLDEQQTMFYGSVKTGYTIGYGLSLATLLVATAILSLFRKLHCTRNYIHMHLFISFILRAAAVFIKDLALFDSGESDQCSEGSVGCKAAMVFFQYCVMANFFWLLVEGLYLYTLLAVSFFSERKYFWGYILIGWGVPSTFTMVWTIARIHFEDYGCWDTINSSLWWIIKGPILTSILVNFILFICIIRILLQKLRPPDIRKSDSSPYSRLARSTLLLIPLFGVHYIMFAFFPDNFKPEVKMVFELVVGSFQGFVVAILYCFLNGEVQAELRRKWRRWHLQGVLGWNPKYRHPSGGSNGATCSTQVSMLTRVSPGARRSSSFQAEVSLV
Protocol: as §1, §2, §3, §4, §5, §6, §7, §8, §9, §10

[4] = target: T3, human PAC1 (Homo sapiens, UniProt P41586); experiment: Filter binding assay, membranes of cells transiently transfected with human PAC1, 125I-labeled PACAP-27 tracer (Table 2); design: expressed in transfected cells; settings: read-out: Human PAC1 Receptor Binding
T3 sequence (P41586 21-468): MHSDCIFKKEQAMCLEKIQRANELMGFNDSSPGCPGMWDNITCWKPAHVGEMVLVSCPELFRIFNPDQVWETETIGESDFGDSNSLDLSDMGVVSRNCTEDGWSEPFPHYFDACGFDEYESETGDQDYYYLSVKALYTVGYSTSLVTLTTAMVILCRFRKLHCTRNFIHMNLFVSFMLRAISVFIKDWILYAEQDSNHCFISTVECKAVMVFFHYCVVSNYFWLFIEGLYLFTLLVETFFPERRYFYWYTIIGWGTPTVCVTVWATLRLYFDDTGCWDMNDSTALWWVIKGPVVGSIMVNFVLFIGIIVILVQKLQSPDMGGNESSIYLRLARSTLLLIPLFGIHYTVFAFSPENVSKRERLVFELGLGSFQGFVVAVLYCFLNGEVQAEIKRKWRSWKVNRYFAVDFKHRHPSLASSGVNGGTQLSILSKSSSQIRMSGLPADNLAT
Protocol: as §1, §2, §3, §4, §5, §6, §7, §8, §9, §10

Compound	EC50 [1] [nM]	IC50 [2] [nM]	IC50 [3] [nM]	IC50 [4] [nM]
CC[C@H](C)[C@H](NC(=O)[C@H](CO)NC(=O)[C@H](CCC(N)=O)NC(=O)[C@H](CC(C)C)NC(=O)[C@H](Cc1ccc(O)cc1)NC(=O)[C@H](CCCCN)NC(=O)[C@H](CCCCN)NC(=O)[C@H](C)NC(=O)[C@H](C)NC(=O)[C@@H](NC(=O)[C@H](CCC(N)=O)NC(=O)[C@H](CCCCN)NC(=O)[C@H](CCCNC(=N)N)NC(=O)[C@H](CC(C)C)NC(=O)[C@H](CCCNC(=N)N)NC(=O)[C@@H](NC(=O)[C@H](Cc1ccc(O)cc1)NC(=O)[C@H](CCC(N)=O)NC(=O)[C@H](CC(=O)O)NC(=O)[C@@H](NC(=O)[C@H](Cc1ccccc1)NC(=O)[C@@H](NC(=O)[C@H](C)NC(=O)[C@H](CC(=O)O)NC(=O)[C@H](CO)NC(=O)[C@H](Cc1c[nH]cn1)NC(=O)[C@@H](N)CCSC)C(C)C)[C@@H](C)O)[C@@H](C)O)C(C)C)C(=O)N[C@@H](CCCCN)C(=O)N[C@@H](CCC(N)=O)C(=O)N[C@@H](CCCCN)C(=O)N[C@@H](CCCNC(=N)N)C(=O)N[C@@H](Cc1ccc(O)cc1)C(=O)NCC(=O)NCC(=O)N1CCC[C@H]1C(=O)N[C@@H](CO)C(=O)N[C@@H](CO)C(=O)NCC(=O)N[C@@H](C)C(=O)N1CCC[C@H]1C(=O)N1CCC[C@H]1C(=O)N1CCC[C@H]1C(=O)N[C@@H](CO)C(=O)O [Agonist P100]	0.28	0.4	321	187
Hexanoyl-HSDAVFTDNYTRLRKQVAAKKYLQIIKNKRYGGPSSGAPPPS [Agonist P113]	0.26	0.69	293	189
Hexanoyl-HSDAVFTDNYTRLRKQVAAKKYLQSIKNKKGGPSSGAPPPS [Agonist P121]	0.1	0.19	169	253
Hexanoyl-HSDAVFTDNYTRLRKQVAAKKYLQTIKNKRYGGPSSGAPPPS [Agonist P115]	0.2	0.1	267	190
Hexanoyl-HSDAVFTDNYTRLRKQVAAKKWLQSIKNKRYGGPSSGAPPPS [Agonist P129]	0.49	0.38	462	678
CCCCCC(=O)N[C@@H](Cc1c[nH]cn1)C(=O)N[C@@H](CO)C(=O)N[C@@H](CC(=O)O)C(=O)N[C@@H](C)C(=O)N[C@H](C(=O)N[C@@H](Cc1ccccc1)C(=O)N[C@H](C(=O)N[C@@H](CC(=O)O)C(=O)N[C@@H](CC(N)=O)C(=O)N[C@@H](Cc1ccc(O)cc1)C(=O)N[C@H](C(=O)N[C@@H](CCCNC(=N)N)C(=O)N[C@@H](CC(C)C)C(=O)N[C@@H](CCCNC(=N)N)C(=O)N[C@@H](CCCCN)C(=O)N[C@@H](CCC(N)=O)C(=O)N[C@H](C(=O)N[C@@H](C)C(=O)N[C@@H](C)C(=O)N[C@@H](CCC(N)=O)C(=O)N[C@@H](CCCCN)C(=O)N[C@@H](Cc1ccc(O)cc1)C(=O)N[C@@H](CC(C)C)C(=O)N[C@@H](CC(N)=O)C(=O)N[C@@H](CCC(N)=O)C(=O)N[C@@H](CC(C)C)C(=O)N[C@@H](CCCCN)C(=O)N[C@@H](CCCCN)C(=O)NCC(=O)NCC(=O)N1CCC[C@H]1C(=O)N[C@@H](CO)C(=O)N[C@@H](CO)C(=O)NCC(=O)N[C@@H](C)C(=O)N1CCC[C@H]1C(=O)N1CCC[C@H]1C(=O)N1CCC[C@H]1C(=O)N[C@@H](CO)C(=O)O)C(C)C)[C@@H](C)O)[C@@H](C)O)C(C)C [Agonist P144] (Hexanoyl-HSDAVFTDNYTRLRKQVAAQKYLNQLKKGGPSSGAPPPS-OH; C-terminus assumed)	0.32	0.57	4.43	1180
Hexanoyl-HSDAVFTDNYTRLRKQVAAKKYLQWIKNKRYGGPSSGAPPPS [Agonist P117]	0.2	0.51	442	243
Hexanoyl-HSDAVFTDQYTRLLAKLALQKYLQSIKQKRYGGPSSGAPPPS [Agonist P192]	0.18	0.53	1430	14300
Hexanoyl-HSDAVFTDNYTRLRKQVAAKKYLQ[Aib]IKNKRYGGPSSGAPPPS [Agonist P187]	0.4	0.17	134	296
Hexanoyl-HSDAVFTDNYTRLRRQVAARRYLQSIRNRRYGGPSSGAPPPS [Agonist P98]	0.15	0.17	69	96.3
Hexanoyl-HSDAVFTDNYTRLRKQVAGKKYLQSIKNKRYGGPSSGAPPPS [Agonist P275]	0.32	0.38	558	630
Hexanoyl-HSDAVFTDNYTRLRKQVAAKKYLQSYKNKRYGGPSSGAPPPS [Agonist P111]	0.34	0.19	300	258
Hexanoyl-HSDAVFTDNYTKLKKQVAAKKYLQSIKNKKYGGPSSGAPPPS [Agonist P103]	0.12	0.08	228	333
Hexanoyl-H[dA]DAVFTDNYTRLRKQVAAKKYLQSIKNKRYGGPSSGAPPPS [Agonist P101]	0.21	0.18	93.6	274
CCCCCC(=O)N[C@@H](Cc1c[nH]cn1)C(=O)N[C@@H](CO)C(=O)N[C@@H](CC(=O)O)C(=O)N[C@@H](C)C(=O)N[C@H](C(=O)N[C@@H](Cc1ccccc1)C(=O)N[C@H](C(=O)N[C@@H](CC(=O)O)C(=O)N[C@@H](CC(N)=O)C(=O)N[C@@H](Cc1ccc(O)cc1)C(=O)N[C@H](C(=O)N[C@@H](CCCNC(=N)N)C(=O)N[C@@H](CC(C)C)C(=O)N[C@@H](CCCNC(=N)N)C(=O)N[C@@H](CCCCN)C(=O)N[C@@H](CCC(N)=O)C(=O)N[C@H](C(=O)N[C@@H](C)C(=O)N[C@@H](C)C(=O)N[C@@H](CCCCN)C(=O)N[C@@H](CCCCN)C(=O)N[C@@H](Cc1ccc(O)cc1)C(=O)N[C@@H](CC(C)C)C(=O)N[C@@H](CCC(N)=O)C(=O)N[C@@H](CO)C(=O)N[C@H](C(=O)N[C@@H](CCCCN)C(=O)N[C@@H](CC(N)=O)C(=O)NCC(=O)NCC(=O)N1CCC[C@H]1C(=O)N[C@@H](CO)C(=O)N[C@@H](CO)C(=O)NCC(=O)N[C@@H](C)C(=O)N1CCC[C@H]1C(=O)N1CCC[C@H]1C(=O)N1CCC[C@H]1C(=O)N[C@@H](CO)C(=O)O)[C@@H](C)CC)C(C)C)[C@@H](C)O)[C@@H](C)O)C(C)C [Agonist P154] (Hexanoyl-HSDAVFTDNYTRLRKQVAAKKYLQSIKNGGPSSGAPPPS-OH; C-terminus assumed)	0.18	0.31	141	1960
Hexanoyl-HSDAVFTDNYTRLRKQVAAKKFLQSIKNKRYGGPSSGAPPPS [Agonist P130]	0.77	0.43	233	444

From US20080026996A1, “Selective Vpac2 Receptor Reptide Agonists” (ELI LILLY AND COMPANY, priority 2004, published 2008)
